The values that follow come from patent US20070270462A1, “8-hydroxyquinoline compounds for treating a polyglutamine (polyQ)-expansion disease” (priority 2005, published 2007).

In data set [1] the test system is R6/2 mice. In words: Body weight of R6/2 mice. It is filed as in vivo, mouse. The settings on record: 10th and 11th weeks, oral CQ 30 mg/kg/day. As to the method:
A colony of transgenic mice strain R6/2 that is heterozygous for htt exon1 (containing 145 CAG repeats) was maintained, with founders originating and available from The Jackson Laboratory (Bar Harbor, Me., USA). Male transgenic R6/2 mice were bred with background strain (B6CBAFI/J) females. Genotyping was done according to Hockly et al, Brain Res Bull 61, 469-479, 2003. CQ in water was orally administered to mice at 30 mg/kg/day starting at 3 weeks of age and continued until the mice were deceased or sacrificed for tissues. Littermate R6/2 mice were gavaged with water vehicle alone. At the end of CQ treatment mice were anesthetized and transcardially perfused with PBS followed by 4% v/v paraformaldehyde. Blood glucose levels were determined after at least 8 hrs of fasting in 11-week old mice (n=6 for wild-type, n=4 for vehicle-treated R6/2, n=6 for CQ-treated R6/2 littermates) using a 2300 STAT Plus glucose analyzer (YSI, Yellowsonte, Ohio, USA). Fasting blood insulin levels in animals fasted for 8 hrs were measured using an Ultra Sensitive Rat Insulin ELISA Kit (Crystal Chem, Inc., Downers Grove, Ill., USA) according to manufacturer's instructions. […]

In another data set the test system is egfp-alone. In words: Fluorescence microscopy of transfected PC12 cells expressing egfp alone. The class given is cell-based. Conditions: CQ 4 μM, 48 hours post-transfection. The source says: (§1) PolyQ-htt-GFP fusion constructs, in which the polyglutamine region is encoded by CAA and CAG-containing tandem repeats ([…]) [SEQ ID NO: 1], human polyglutaminen, were obtained from the Hereditary Disease Foundation, Santa Monica, Calif., USA. PC12 and HEK293 cells were maintained in MEM supplemented with 10% v/v FBS, switched to Opti-MEM without serum for 6 hrs during transfection using Lipofectamine 2000 (Invitrogen, Carlsbad, Calif., USA), and returned to serum-containing medium thereafter (up to 48 hours). […] Control cultures received equivalent amounts of DMSO-containing vehicle (<0.1% w/v DMSO, final concentration).
Concordant with this reduction in mutant protein expression, cell survival was improved by CQ in a dose dependent fashion with a half maximal effect at 1-2 μM (FIG. 2b). Cell death began to increase at 8 μM, likely due to dose-dependent toxic effects of CQ.

Data set [2] deals with R6/2 mice. The data set can be described thus: Fasting blood glucose in R6/2 mice. The class given is in vivo, mouse. Conditions: 11-week old R6/2 mice after 8 weeks of CQ treatment, mean ± s.e.m. As to the method:
(§2) A colony of transgenic mice strain R6/2 that is heterozygous for htt exon1 (containing 145 CAG repeats) was maintained, with founders originating and available from The Jackson Laboratory (Bar Harbor, Me., USA). Male transgenic R6/2 mice were bred with background strain (B6CBAFI/J) females. Genotyping was done according to Hockly et al, Brain Res Bull 61, 469-479, 2003. CQ in water was orally administered to mice at 30 mg/kg/day starting at 3 weeks of age and continued until the mice were deceased or sacrificed for tissues. Littermate R6/2 mice were gavaged with water vehicle alone. At the end of CQ treatment mice were anesthetized and transcardially perfused with PBS followed by 4% v/v paraformaldehyde. Blood glucose levels were determined after at least 8 hrs of fasting in 11-week old mice (n=6 for wild-type, n=4 for vehicle-treated R6/2, n=6 for CQ-treated R6/2 littermates) using a 2300 STAT Plus glucose analyzer (YSI, Yellowsonte, Ohio, USA). Fasting blood insulin levels in animals fasted for 8 hrs were measured using an Ultra Sensitive Rat Insulin ELISA Kit (Crystal Chem, Inc., Downers Grove, Ill., USA) according to manufacturer's instructions.
(§3) Consistent with the blood glucose level was a reciprocal change in blood insulin levels.
(§4) Data are mean+s.e.m. n≧4 for each treatment group. *P<0.0004 for glucose, **P=0.0065 for insulin levels comparing vehicle and CQ-treated groups.

The subject of data set [3] is R6/2 mice. In words: Rotarod performance in R6/2 mice. It is filed as in vivo, mouse. Conditions: between ninth and eleventh weeks of age, oral CQ 30 mg/kg/day. The method, then:
(§5) A colony of transgenic mice strain R6/2 that is heterozygous for htt exon1 (containing 145 CAG repeats) was maintained, with founders originating and available from The Jackson Laboratory (Bar Harbor, Me., USA). Male transgenic R6/2 mice were bred with background strain (B6CBAFI/J) females. Genotyping was done according to Hockly et al, Brain Res Bull 61, 469-479, 2003. CQ in water was orally administered to mice at 30 mg/kg/day starting at 3 weeks of age and continued until the mice were deceased or sacrificed for tissues. Littermate R6/2 mice were gavaged with water vehicle alone. […] Blood glucose levels were determined after at least 8 hrs of fasting in 11-week old mice (n=6 for wild-type, n=4 for vehicle-treated R6/2, n=6 for CQ-treated R6/2 littermates) using a 2300 STAT Plus glucose analyzer (YSI, Yellowsonte, Ohio, USA). Fasting blood insulin levels in animals fasted for 8 hrs were measured using an Ultra Sensitive Rat Insulin ELISA Kit (Crystal Chem, Inc., Downers Grove, Ill., USA) according to manufacturer's instructions.
(§6) Rotarod performance (n≧6 for each treatment group) was assessed as described by Hockly et al., 2003 Supra with the modification that the SDI Rota-Rod (San Diego Instruments, San Diego, Calif.) was set to linearly increase in speed to 40 rpm in 4 min ramp time. […]
A general note: In the rotarod test animals must keep their balance on a rotating rod.

Data set [4] relates to Htt exon1-Q103-egfp transfected PC12 cells. The data set can be described thus: cells. It is filed as cell-based.
Text: as §1
Plasma membrane integrity was evaluated using propidium iodide at 20 μg/ml final concentration. Approximately 200 cells transfected with the Htt^exon1-Q103-egf plasmid were counted for each treatment group 48 hr after transfection. Cells were at that time as expanded protein accumulation had reached a plateau, and 90% of cell death occurred by this time point. The experiment was repeated twice and counts were averaged. Counts of transfected cells were averaged from three independent, randomly-selected fields. ImageJ 1.32j (National Institutes of Health, USA), was used to measure the size of the lateral ventricles (n≧6 for each group). […]

Data set [5] deals with R6/2 mice. The data set can be described thus: Fasting blood insulin in R6/2 mice (ELISA). The class given is in vivo, mouse. Conditions: 11-week old R6/2 mice. As to the method:
as §2, §3, §4
On the technique in general: In an ELISA, binding on a coated surface is turned into a signal by an enzyme label.

Data set [6] deals with R6/2 mice. In words: Foot clasping test in R6/2 mice. The class given is in vivo, mouse. Conditions: R6/2 mice at 10 weeks. As to the method: as §5, §6

Molecules are shown by their SMILES. Marks after values point to notes of the source that are not given here.

Take `Oc1c(I)cc(Cl)c2cccnc12` [CQ, 5-chloro-7-iodo-8-hydroxy-quinoline]: the body weight result in the data set with R6/2 mice [1] is “significantly greater than untreated animals”. Besides, the “fluorescent product of egfp-alone” value in the data set on egfp-alone was “unaffected”. The “fasting blood glucose level” value in the data set with R6/2 mice [2] is 4.1 ± 0.3 mM. The rotarod performance entry with R6/2 mice [3] is “scored significantly better”. The EC50 in data set [4] (Rattus norvegicus, PC-12, Htt exon1-Q103-egfp cells, PI staining, 48 hr after transfection, read-out: cell survival improvement, half maximal effect) was 1000 to 2000 nM. Further, the “CQ concentration at which cell death began to increase (toxic effects of CQ)” value in data set [4] (rat, 48 h) was 8 µM. In the data set with R6/2 mice [5] (CQ treated group), this compound came in with a fasting blood insulin level of 415 ± 54.6 pg/mL. The Insulin level in the data set with R6/2 mice [5] (fasting, CQ-treated, mean ± s.e.m. (Table 3)) is reported as 415 ± 54.60** pg/ml. The average clasping score with R6/2 mice [6] (score of 3 maximum, oral CQ 30 mg/kg/day) is 1.3. In addition, in the data set on R6/2 mice [6] (versus vehicle (2.5)), the “reduction of average clasping score” value is listed as 48%.
